Experimental data: the supplement of paper PMC10307832

Legend:
Experiment in all cases: relative viability (nuclei count vs DMSO), 5 days (fraction); higher = more cells survive
Doxorubicin + Phenformin = compound: COc1cccc2c1C(=O)c1c(O)c3c(c(O)c1C2=O)C[C@@](O)(C(=O)CO)C[C@@H]3O[C@H]1C[C@H](N)[C@H](O)[C@H](C)O1 [Doxorubicin] + N=C(N)NC(=N)NCCc1ccccc1 [Phenformin] (partner 250 µM)
Summary of the method: (§1)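 Relative viability equals treated-well nuclei counts divided by vehicle-well nuclei counts. Counts came from 4× images of lung cancer cell lines grown in 1536-well plates for 5 days after pin-tool dosing on the day after seeding. Dosing used one drug alone or a fixed anchor-drug dose plus five library-drug doses (not always all listed) in √10 steps, and values are medians of duplicate plates.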

BAY61-3606 + Bortezomib = compound: COC1=C(C=C(C=C1)C2=CC3=NC=CN3C(=N2)NC4=C(C=CC=N4)C(=O)N)OC [BAY61-3606] + CC(C)C[C@H](NC(=O)[C@H](Cc1ccccc1)NC(=O)c1cnccn1)B(O)O [Bortezomib] (partner 0.002 µM)
Summary of the method: as §1

BAY61-3606 + Pemetrexed = compound: COC1=C(C=C(C=C1)C2=CC3=NC=CN3C(=N2)NC4=C(C=CC=N4)C(=O)N)OC [BAY61-3606] + Nc1nc2[nH]cc(CCc3ccc(C(=O)N[C@@H](CCC(=O)O)C(=O)O)cc3)c2c(=O)[nH]1 [Pemetrexed] (partner 0.2 µM)
Summary of the method: as §1

BAY61-3606 + Navitoclax = compound: COC1=C(C=C(C=C1)C2=CC3=NC=CN3C(=N2)NC4=C(C=CC=N4)C(=O)N)OC [BAY61-3606] + CC1(C)CCC(c2ccc(Cl)cc2)=C(CN2CCN(c3ccc(C(=O)NS(=O)(=O)c4ccc(N[C@H](CCN5CCOCC5)CSc5ccccc5)c(S(=O)(=O)C(F)(F)F)c4)cc3)CC2)C1 [Navitoclax] (partner 0.5 µM)
Summary of the method: as §1

| Cell Line | relative viability (Doxorubicin + Phenformin; first compound 0.001 µM) | relative viability (Doxorubicin + Phenformin; first compound 0.003162 µM) | relative viability (Doxorubicin + Phenformin; first compound 0.01 µM) | relative viability (Doxorubicin + Phenformin; first compound 0.03162 µM) | relative viability (Doxorubicin + Phenformin; first compound 0.1 µM) | relative viability (BAY61-3606 + Bortezomib; first compound 0.02 µM) | relative viability (BAY61-3606 + Bortezomib; first compound 0.06325 µM) | relative viability (BAY61-3606 + Bortezomib; first compound 0.2 µM) | relative viability (BAY61-3606 + Bortezomib; first compound 0.6325 µM) | relative viability (BAY61-3606 + Bortezomib; first compound 2 µM) | relative viability (BAY61-3606 + Pemetrexed; first compound 0.02 µM) | relative viability (BAY61-3606 + Pemetrexed; first compound 0.06325 µM) | relative viability (BAY61-3606 + Pemetrexed; first compound 0.2 µM) | relative viability (BAY61-3606 + Pemetrexed; first compound 0.6325 µM) | relative viability (BAY61-3606 + Pemetrexed; first compound 2 µM) | relative viability (BAY61-3606 + Navitoclax; first compound 0.02 µM) | relative viability (BAY61-3606 + Navitoclax; first compound 0.06325 µM) | relative viability (BAY61-3606 + Navitoclax; first compound 0.2 µM) | relative viability (BAY61-3606 + Navitoclax; first compound 0.6325 µM) | relative viability (BAY61-3606 + Navitoclax; first compound 2 µM) |
| --- | --- | --- | --- | --- | --- | --- | --- | --- | --- | --- | --- | --- | --- | --- | --- | --- | --- | --- | --- | --- |
| NCI-H661 | 0.27 | 0.284 | 0.265 | 0.244 | 0.238 | 0.896 | 0.713 | 0.767 | 0.724 | 0.556 | 0.963 | 1.01 | 0.84 | 0.931 | 0.703 | – | – | – | – | – |
| NCI-H727 | 0.499 | 0.472 | 0.696 | 0.539 | 0.404 | 0.844 | 0.822 | 0.872 | 0.856 | 0.829 | – | – | – | – | – | 0.45 | 0.512 | 0.419 | 0.525 | 0.33 |
| NCI-H1299 | – | – | – | – | – | 1.08 | 1.03 | 1.02 | 1.04 | 0.991 | – | – | – | – | – | 1.05 | 1.06 | 1.05 | 1.07 | 1.05 |
| NCI-H1395 | 0.43 | 0.44 | 0.447 | 0.414 | 0.449 | – | – | – | – | – | 1.04 | 0.659 | 0.72 | 0.899 | 0.73 | 1.26 | 1.04 | 1.49 | 1.35 | 0.966 |
| NCI-H1563 | 0.618 | 0.573 | 0.546 | 0.524 | 0.501 | 0.84 | 0.803 | 0.948 | 0.988 | 0.631 | 0.894 | 0.745 | 0.669 | 0.84 | 0.712 | – | – | – | – | – |
| NCI-H1623 | 0.533 | 0.561 | 0.575 | 0.528 | 0.502 | – | – | – | – | – | – | – | – | – | – | – | – | – | – | – |
| NCI-H1648 | – | – | – | – | – | – | – | – | – | – | 0.803 | 0.622 | 0.79 | – | 0.874 | – | – | – | – | – |
| NCI-H1703 | – | – | – | – | – | 0.486 | 0.321 | 0.291 | 0.368 | 0.234 | – | – | – | – | – | 1.47 | 0.859 | 0.954 | 1.08 | 0.475 |
| NCI-H1793 | – | 0.291 | 0.355 | 0.334 | 0.429 | – | – | – | – | – | 0.983 | 0.88 | 0.896 | 1.13 | 1.08 | 0.547 | 0.578 | 0.471 | 0.459 | 0.249 |
| NCI-H1944 | 0.182 | 0.224 | 0.206 | 0.177 | 0.172 | – | – | – | – | – | 0.677 | 0.565 | 0.644 | 0.583 | 0.518 | 1.12 | 1.1 | 1.01 | 1.02 | 1.04 |
| NCI-H2170 | 0.379 | 0.388 | 0.411 | 0.485 | 0.432 | – | – | – | – | – | 0.285 | 0.268 | 0.278 | 0.258 | 0.269 | 0.618 | 0.607 | 0.572 | 0.517 | 0.259 |
| NCI-H2342 | 0.638 | 0.54 | 0.527 | 0.552 | 0.553 | – | – | – | – | – | 0.748 | 0.774 | 0.716 | 0.825 | 0.811 | – | – | – | – | – |
| SK-MES-1 | 0.655 | 0.648 | 0.612 | 0.285 | 0.222 | – | – | – | – | – | 1.03 | 0.909 | 0.869 | 0.88 | 0.713 | 1.32 | 1.3 | 1.24 | 1.39 | 1.09 |
| SW 900 | 0.704 | 0.685 | 0.607 | 0.328 | 0.138 | – | – | – | – | – | 0.473 | – | – | 0.465 | 0.358 | – | – | – | – | – |
